One data set has as its system M. tuberculosis H37Rv. Description: Minimum inhibitory concentration (MIC) in the MABA. The settings on record: Mycobacterium tuberculosis, H37RV, Table 5; Alamar assay, M. tuberculosis H37Rv; read-out: MIC. In kind it is cell-based, Mycobacterium tuberculosis. Put shortly:
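Run under the NIAID TAACF screening program against M. tuberculosis by fluorescence read-out. MIC taken as the lowest concentration giving 90% reduction in fluorescence relative to controls.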

The test system of data set [1] is standard panel of 12 tumor cell lines in hollow fibers (IP and SC implants). Description: Hollow Fiber Assay. In kind it is in vivo, mice. Here is the method: Generally, as a preliminary in vivo screening tool, the following assay is conducted. A standard panel of 12 tumor cell lines were used for the routine hollow fiber screening of the in vitro activities. These include NCI-H23, NCI-H522, MDA-MB-231, MDA-MB-435, SW-620, COLO 205, LOX, UACC-62, OVCAR-3, OVCAR-5, U251 and SF-295 according to conventional methods known in the art. See e.g. Hollingshead, M., et al. (1995) Life Sciences 57:131-141, which is herein incorporated by reference. The cell lines are cultivated in RPMI-1640 containing 10% FBS and 2 mM glutamine. On the day preceeding hollow fiber preparation, the cells are given a supplementation of fresh medium to maintain log phase growth. […] On the day of implantation, samples of each tumor cell line preparation are quantitated for viable cell mass by a stable endpoint MTT assay so that the time zero cell mass is known. […] The optical density of each sample is determined spectrophotometrically at 540 nm and the mean of each treatment group is calculated. The percent net growth for each cell line in each treatment group is calculated and compared to the percent net growth in the vehicle treated controls.
A 50% or greater reduction in percent net growth in the treated samples compared to the vehicle control samples is considered a positive result. […] A compound is referred for xenograft testing if it has a combined IP+SC score of 20 or greater, a SC score of 8 or greater, or produces cell kill of any cell line at either dose level evaluated.

In data set [2] the test system is Mycobacterium tuberculosis H37Rv (ATCC 27294). Description: Primary screen, Microplate Alamar Blue Assay (MABA), percent inhibition. The settings on record: Mycobacterium tuberculosis, Table 5; Alamar assay, primary screening at 6.25 μg/ml; read-out: % Inhib. In kind it is cell-based. Put shortly: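 Single-concentration screen at 6.25 μg/ml (or molar equivalent of the heaviest congener in a series) against H37Rv grown in BACTEC 12B medium. Growth read by Microplate Alamar Blue Assay, reported as percent inhibition.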
In general terms: Resazurin is reduced to fluorescent resorufin, in cell work by metabolically active cells.

Data set [3] deals with D6 and W2 P. falciparum clones. In kind it is cell-based, Plasmodium falciparum. The settings on record: IC50 (W2)/IC50 (D6) ratio.
The subject of data set [4] is red blood cell (RBC) membrane. Description: Hemolytic activity test. The settings on record: initial experiments.
Data set [5] deals with Plasmodium falciparum chloroquine-resistant strain W2. Description: microbe, parasite or virus in culture. The settings on record: Plasmodium falciparum, W2, 66 h, read-out: Strain W2 IC50, growth inhibition, chloroquine-resistant strain W2, 66 h incubation. In kind it is cell-based.
The subject of data set [6] is Plasmodium falciparum chloroquine-susceptible strain D6. Description: In vitro antimalarial drug susceptibility assay (radiolabeled hypoxanthine incorporation), strain D6. In kind it is cell-based. The settings on record: Plasmodium falciparum, D6, 66 h, read-out: Strain D6 IC50, growth inhibition, chloroquine-susceptible strain D6, 66 h incubation.
For data set [7], the system named is 60 human tumor cell lines. Description: DTP Human Tumor Cell Line Screen, full panel. In kind it is cell-based. The settings on record: range over 60 cell lines, after 48 h, read-out: LC50 (the source's name). Here is the method: In preliminary tests, four compounds (1B14a, 1C44, 1C45, and 1C46) were chosen by NIH-NCI for in vitro screening. See Drug discovery and development program, National Cancer Institute, Bethesda, (NCI), http://dtp.nci.nih.gov. All tetraoxanes were evaluated in the 3-cell line (lung—NCI-H460, breast—MCF7, CNS-SF-268) one dose primary anticancer assay: growth percentage after 48 hours, at 100 μM concentration of tested compound. Two compounds were eliminated at this step (1B14a and 1C46), while the acid 1C44 and primary amide 1C45 were evaluated against the full panel of 60 human tumor cell lines starting with 10^−4 M concentration of investigated compounds.
The activity of numerous compounds of the present invention against various cancer cell lines was submitted to the Developmental Therapeutics Program (DTP) at the National Cancer Institute (NCI) of the National Institutes of Health (NIH) for screening.
The DTP Human Tumor Cell Line Screen utilizes 60 different human tumor cell lines, representing leukemia, melanoma and cancers of the lung, colon, brain, ovary, breast, prostate, and kidney according to conventional methods known in the art. […]

Converted amounts (≈) assume the structure as drawn.

Results on two molecules are retold here after patent publication US6906098B2, “Mixed steroidal 1,2,4,5-tetraoxane compounds and methods of making and using thereof” (priority 2002, dated 2005).

In general, MIC refers to the smallest concentration in the dilution series that meets the test's criterion for growth inhibition. The term IC50 denotes the point on the concentration scale where inhibition reaches its midpoint.

In the case of `CCCNC(=O)CCC(C)[C@H]1CCC2C3C(C[C@H](OC(C)=O)[C@@]21C)[C@@]1(C)CCC2(C[C@H]1C[C@H]3OC(C)=O)OOC1(CCCCC1)OO2` (stereo partly drawn) [11/1C20, N-(n-Propyl)-7α,12α-diacetoxy-5β-cholan-24-amide-3-spiro-6′-(1′,2′,4′,5′-tetraoxacyclohexane)-3′-spirocyclohexane], in the data set on M. tuberculosis H37Rv, the MIC was greater than 6.25 µg/mL. The “Total Score” value in data set [1] (combined IP+SC, maximum possible 96) was 20. Moreover, the IP score in data set [1] (intraperitoneal implants, agent by intraperitoneal injection at 2 dose levels, daily for 4 days) is listed as 18. The molecule also came in with an SC score in data set [1] (subcutaneous implants) of 2. In addition, the inhibition at 6.25 µg/mL in data set [2] stood at 88%. Moreover, in data set [3], the “Resistance Index” value stood at 0.46. For the same molecule, in data set [4], the “red blood cell (RBC) membrane lysis” value is given as “no red blood cell (RBC) membrane lysis”. For the same molecule, the IC50 turned out to be 0.0045 µg/mL (≈ 0.0068 µM) in data set [5] and 0.00977 µg/mL (≈ 0.0148 µM) in data set [6].
With `COC(=O)CCC(C)[C@H]1CCC2C3C(C[C@H](OC(C)=O)[C@@]21C)[C@@]1(C)CCC2(C[C@H]1C[C@H]3OC(C)=O)OOC1(CCCCCCC1)OO2` (stereo partly drawn) [8c/1B11, Methyl 7α,12α-diacetoxy-5β-cholan-24-oate-3-spiro-6′-(1′,2′,4′,5′-tetraoxacyclohexane)-3′-spirocyclooctane], in the data set with M. tuberculosis H37Rv, the minimal inhibitory concentration (MIC) is greater than 6.25 µg/mL. Also, the inhibition at 6.25 µg/mL in data set [2] came out at 0%. Moreover, the “Resistance Index” value in data set [3] is 0.41. In addition, the half-inhibitory concentration (IC50) in data set [5] turned out to be 0.0133 µg/mL (≈ 0.02 µM); in data set [6] it was 0.0321 µg/mL (≈ 0.0484 µM). For the same molecule, the CC50 in data set [7] is greater than 100 µM.
